Where a name gives a salt, the structure may show the parent alone.
How the values were obtained:
WRN [1] = target: T1, WRN (Homo sapiens, UniProt Q14191); experiment: WRN Helicase activity assay (fluorescence DNA unwinding); assay type: biochemical; conditions: 1-hr pre-incubation with enzyme; 100 μM ATP, 25 nM forked dsDNA, 1 nM WRN; geometric mean of at least 2 replicates
T1 construct: A His-tagged construct of WRN (AA S2-S1235) was produced and used for the ATPase assay; His; made in house; host or cells: Sf9 insect cells (baculovirus)
Method: Compounds of the examples were tested for WRN helicase activity. DNA encoding the target protein, 6×HIS-TEV-WRN-517-945, was produced, cloned and transfected as detailed in Example D. To determine the inhibitory properties of the compounds, a 384 wells plate-based Helicase assay was set up to measure the extent of DNA unwinding (Helicase) activity of WRN. The WRN Helicase assay was designed to measure increase in fluorescence signal using a fluorescence based, donor-quencher paired forked dsDNA oligomer substrate (custom synthesis from Sigma-Aldrich) prepared by annealing equal amounts of oligo GPat-1 ([BHQ2][…]) and oligo GPat-2 ([…][TAM]). Continuous measurement of fluorescent signal was used to optimize the buffer conditions, concentration of enzyme (WRN), concentration of substrates (ATP & dsDNA), and the linearity of the Helicase reaction. All solutions were prepared in the following assay buffer: 50 mM Tris-HCl, pH-7.5, 2 mM MgCl2, 50 mM NaCl, 1 mM EGTA, 0.01% P-20, 0.05% BSA, and 2 mM DTT prepared with nuclease free water.
A serial dilution (1:3 scheme) of the compounds was prepared in neat DMSO and 100 nL of the compounds was dispensed in the Greiner black low volume (Greiner #784076) 384 wells assay plate. An 1-hr pre-incubation of the compounds with enzyme was included. A His-tagged construct of WRN (AA S2-S1235) was produced and used for the ATPase assay. Maximum inhibition control wells were set up with the addition of only assay buffer, and no inhibition control wells were set up with neat DMSO without test compounds. The reaction was initiated by addition of 5 μL substrate mix (200 μM ultrapure ATP, and 50 nM dsDNA prepared in assay buffer) and incubated at 25° C. for 35 min. A typical Helicase reaction consists of 25 nM forked dsDNA, 100 μM ATP, and 1 nM WRN prepared in assay buffer. The WRN Helicase reaction was quenched by the addition of 5 μL ‘STOP’ solution containing 100 mM EDTA (final EDTA concentration 33.33 mM) prepared in assay buffer. The plates were read on BMG PHERAstar FSX using 540/590 module to measure an increase of fluorescence. Data analysis was carried out using the Genedata software following % of control normalization. Fitting parameters include dose response IC50, Hill slope (n), maximum inhibition (S∞), and minimum inhibition (S0). The reported IC50 values for compounds in this invention are the geometric means of at least 2 independent replicates.

WRN [2] = target: T1, WRN; experiment: WRN ATPase activity assay (ADP-Glo); assay type: biochemical; conditions: 1-hr pre-incubation with enzyme; 100 μM ATP, 25 nM forked dsDNA, 1 nM WRN; geometric mean of at least 2 replicates
Method: Compounds of the Examples were tested for WRN ATPase activity. WRN ATPase activity catalyzes ATP hydrolysis to produce ADP and phosphate. DNA encoding the target protein, 6×HIS-TEV-WRN-517-945, was produced, cloned and transfected as detailed in Example D. The amount of ADP produced was measured using ADP-Glo™ Kinase Assay kit from Promega Corporation in a Greiner white regular volume 384 wells assay plate (Greiner #781075). Data was normalized to a standard curve generated using various ADP concentrations and the corresponding luminescent signal intensities at each concentration. The assay conditions were optimized for enzyme concentration (WRN), substrate concentrations (ATP & dsDNA), and the linearity of the ATPase reaction, in the following assay buffer: 50 mM Tris-HCl, pH-7.5, 2 mM MgCl2, 50 mM NaCl, 1 mM EGTA, 0.01% P-20, 0.05% BSA, and 2 mM DTT prepared with nuclease free water.
A serial dilution (1:3 scheme) of the compounds were prepared in neat DMSO, with 100 nL of the compounds dispensed in the 384 wells assay plate. An 1-hr pre-incubation of the compounds with enzyme was included. A His-tagged construct of WRN (AA S2-S1235) was produced and used for the ATPase assay. Maximum inhibition control wells were set up with the addition of only assay buffer, and no inhibition control wells were set up with neat DMSO without test compounds. The reaction was initiated by addition of 5 μL substrate mix (200 μM ultrapure ATP, and 50 nM dsDNA prepared in assay buffer) and incubated at 25° C. for 35 min. A forked dsDNA oligomer substrate was prepared by annealing equal amounts of oligo GPat-1 ([BHQ2][…]) and oligo GPat-2 ([…][TAM]) and was used as dsDNA substrate for WRN ATPase assay. A typical ATPase reaction consists of 25 nM forked dsDNA, 100 μM ATP, and 1 nM WRN prepared in assay buffer. The WRN ATPase reaction was stopped by the addition of 5 μL of ADP-Glo Reagent from ADP-Glo™ Kinase Assay kit and incubated for 40 min to deplete the unreacted ATP. Afterwards, 5 μL of Kinase Detection Reagent from the ADP-Glo™ Kinase Assay kit was added and incubated for 1 hr for the development of luminescence signal.
Luminesce signals were measured on BMG PHERAstar FSX using luminescence protocol. Data analysis was carried out using Genedata software following % of control normalization. Fitting parameters include dose response IC50, Hill slope (n), maximum inhibition (S∞), and minimum inhibition (S0). The reported IC50 values for compounds in this invention are the geometric means of at least 2 independent replicates.

T1 sequence (Q14191 2-1235): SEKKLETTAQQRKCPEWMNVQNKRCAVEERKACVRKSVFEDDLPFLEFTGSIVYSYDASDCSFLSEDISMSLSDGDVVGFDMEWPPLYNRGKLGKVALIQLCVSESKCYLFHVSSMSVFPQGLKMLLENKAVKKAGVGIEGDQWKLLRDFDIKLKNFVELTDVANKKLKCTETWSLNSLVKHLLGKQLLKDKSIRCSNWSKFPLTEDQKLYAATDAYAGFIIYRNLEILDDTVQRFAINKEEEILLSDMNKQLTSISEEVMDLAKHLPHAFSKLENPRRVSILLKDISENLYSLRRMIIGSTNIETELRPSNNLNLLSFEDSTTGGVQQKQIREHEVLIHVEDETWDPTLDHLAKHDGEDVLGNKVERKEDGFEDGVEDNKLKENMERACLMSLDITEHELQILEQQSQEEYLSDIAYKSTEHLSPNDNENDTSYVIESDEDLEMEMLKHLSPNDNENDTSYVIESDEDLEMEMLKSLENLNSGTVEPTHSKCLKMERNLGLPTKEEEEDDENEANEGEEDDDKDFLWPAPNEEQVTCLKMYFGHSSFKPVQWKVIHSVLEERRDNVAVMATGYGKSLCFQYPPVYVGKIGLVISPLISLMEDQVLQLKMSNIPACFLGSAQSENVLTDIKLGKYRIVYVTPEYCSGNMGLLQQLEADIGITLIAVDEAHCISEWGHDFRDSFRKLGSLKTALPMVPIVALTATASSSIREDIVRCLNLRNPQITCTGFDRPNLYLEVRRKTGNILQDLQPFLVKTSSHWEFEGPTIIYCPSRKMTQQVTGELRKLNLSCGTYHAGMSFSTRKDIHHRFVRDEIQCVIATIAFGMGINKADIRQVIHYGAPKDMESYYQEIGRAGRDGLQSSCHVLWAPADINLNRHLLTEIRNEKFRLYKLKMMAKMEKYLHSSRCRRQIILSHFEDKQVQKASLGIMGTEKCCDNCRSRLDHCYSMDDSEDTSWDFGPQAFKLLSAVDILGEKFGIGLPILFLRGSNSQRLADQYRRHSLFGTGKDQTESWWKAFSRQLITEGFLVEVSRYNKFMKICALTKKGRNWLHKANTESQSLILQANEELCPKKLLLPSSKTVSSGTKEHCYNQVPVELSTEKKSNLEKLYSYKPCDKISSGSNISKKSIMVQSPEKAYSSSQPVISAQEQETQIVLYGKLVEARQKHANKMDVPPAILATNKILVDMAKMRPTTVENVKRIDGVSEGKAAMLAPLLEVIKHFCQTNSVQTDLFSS

Structure (SMILES) | IC50 (WRN [1]) [µM] | IC50 (WRN [2]) [µM]
C=CC(=O)Nc1c(Cl)cccc1-c1c(CC)nc2n(CC(=O)Nc3ccc(Cl)cc3)c(C)cn2c1=O [Example 43, N-(2-chloro-6-(1-(2-((4-chlorophenyl)amino)-2-oxoethyl)-7-ethyl-2-methyl-5-oxo-1,5-dihydroimidazo[1,2-a]pyrimidin-6-yl)phenyl)acrylamide] | < 0.1 | < 0.1
C=CC(=O)Nc1cc(C(=O)NC2CC2)ccc1-c1c(CC)nc2n(CC(=O)Nc3ccc(F)cc3)c(C)c(C)n2c1=O [Example 24, 3-Acrylamido-N-cyclopropyl-4-(7-ethyl-1-(2-((4-fluorophenyl)amino)-2-oxoethyl)-2,3-dimethyl-5-oxo-1,5-dihydroimidazo[1,2-a]pyrimidin-6-yl)benzamide] | < 0.1 | < 0.1
C=CC(=O)Nc1cc(C(=O)NC2CC2)ccc1-c1c(CC)nc2n(CC(=O)Nc3ccc(F)cc3Cl)c(C)c(C)n2c1=O [Example 25, 3-Acrylamido-4-(1-(2-((2-chloro-4-fluorophenyl)amino)-2-oxoethyl)-7-ethyl-2,3-dimethyl-5-oxo-1,5-dihydroimidazo[1,2-a]pyrimidin-6-yl)-N-cyclopropylbenzamide] | < 0.1 | < 0.1
C=CC(=O)Nc1cc(C(=O)NC2CC2)ccc1-c1c(CC)nc2n(CC(=O)Nc3ccc(C(F)(F)F)cc3)c(C)cn2c1=O [Example 8, 3-Acrylamido-N-cyclopropyl-4-(7-ethyl-2-methyl-5-oxo-1-(2-oxo-2-((4-(trifluoromethyl)phenyl)amino)ethyl)-1,5-dihydroimidazo[1,2-a]pyrimidin-6-yl)benzamide] | < 0.1 | < 0.1
C=CC(=O)Nc1ccccc1-c1c(CC)nc2n(CC(=O)Nc3ccc(C(F)(F)F)cc3)c(C)c(C)n2c1=O [Example 21, N-(2-(7-Ethyl-2,3-dimethyl-5-oxo-1-(2-oxo-2-((4-(trifluoromethyl)phenyl)amino)ethyl)-1,5-dihydroimidazo[1,2-a]pyrimidin-6-yl)phenyl)acrylamide] | < 0.1 | < 0.1
C=CC(=O)Nc1ccccc1-c1c(C)n(CC(=O)Nc2ccc(C(F)(F)F)cc2)c2nc(CC)c(C)c(=O)n12 [Example 39, N-(2-(7-Ethyl-2,6-dimethyl-5-oxo-1-(2-oxo-2-((4-(trifluoromethyl)phenyl)amino)ethyl)-1,5-dihydroimidazo[1,2-a]pyrimidin-3-yl)phenyl)acrylamide] | 0.1 to 0.5 | 0.1 to 0.5
C=CC(=O)Nc1cc(C(=O)NCC)ccc1-c1c(CC)nc2n(CC(=O)Nc3ccc(C(F)(F)F)cc3)c(C)c(C)n2c1=O [Example 27, 3-Acrylamido-N-ethyl-4-(7-ethyl-2,3-dimethyl-5-oxo-1-(2-oxo-2-((4-(trifluoromethyl)phenyl)amino)ethyl)-1,5-dihydroimidazo[1,2-a]pyrimidin-6-yl)benzamide] | < 0.1 | < 0.1
C#CCNC(=O)c1ccc(-c2c(CC)nc3n(CC(=O)Nc4ccc(C(F)(F)F)cc4)c(C)cn3c2=O)c(NC(=O)C=C)c1 [Example 12, 3-Acrylamido-4-(7-ethyl-2-methyl-5-oxo-1-(2-oxo-2-((4-(trifluoromethyl)phenyl)amino)ethyl)-1,5-dihydroimidazo[1,2-a]pyrimidin-6-yl)-N-(prop-2-yn-1-yl)benzamide] | < 0.1 | < 0.1

Further lines, results first:

IC50 (WRN [1]) [µM] | IC50 (WRN [2]) [µM] | Structure (SMILES)
< 0.1 | < 0.1 | C=CC(=O)Nc1ccccc1-c1c(C)n(CC(=O)Nc2ccc(C(F)(F)F)cc2)c2nc(CC)c(-c3ccc(C(=O)NCC)cc3)c(=O)n12 [Example 40, 4-(3-(2-Acrylamidophenyl)-7-ethyl-2-methyl-5-oxo-1-(2-oxo-2-((4-(trifluoromethyl)phenyl)amino)ethyl)-1,5-dihydroimidazo[1,2-a]pyrimidin-6-yl)-N-ethylbenzamide, trifluoroacetate salt]
< 0.1 | < 0.1 | C=CC(=O)Nc1cc(C(=O)NC2CC2)ccc1-c1c(CC)nc2n(CC(=O)Nc3ccc(F)cc3Cl)c(C)cn2c1=O [Example 9, 3-Acrylamido-4-(1-(2-((2-chloro-4-fluorophenyl)amino)-2-oxoethyl)-7-ethyl-2-methyl-5-oxo-1,5-dihydroimidazo[1,2-a]pyrimidin-6-yl)-N-cyclopropylbenzamide]
< 0.1 | < 0.1 | C=CC(=O)Nc1cc(C(=O)NCC(F)F)ccc1-c1c(CC)nc2n(CC(=O)Nc3ccc(C(F)(F)F)cc3)c(C)c(C)n2c1=O [Example 30, 3-Acrylamido-N-(2,2-difluoroethyl)-4-(7-ethyl-2,3-dimethyl-5-oxo-1-(2-oxo-2-((4-(trifluoromethyl)phenyl)amino)ethyl)-1,5-dihydroimidazo[1,2-a]pyrimidin-6-yl)benzamide]
< 0.1 | < 0.1 | C=CC(=O)Nc1cc(-c2cnn(C)c2)ccc1-c1c(CC)nc2n(CC(=O)Nc3ccc(C(F)(F)F)cc3)c(C)cn2c1=O [Example 5, N-(2-(7-Ethyl-2-methyl-5-oxo-1-(2-oxo-2-((4-(trifluoromethyl)phenyl)amino)ethyl)-1,5-dihydroimidazo[1,2-a]pyrimidin-6-yl)-5-(1-methyl-1H-pyrazol-4-yl)phenyl)acrylamide]
< 0.1 | < 0.1 | C=CC(=O)Nc1ncccc1-c1c(CC)nc2n(CC(=O)Nc3ccc(C(F)(F)F)cc3)c(C)cn2c1=O [Example 4, N-(3-(7-Ethyl-2-methyl-5-oxo-1-(2-oxo-2-((4-(trifluoromethyl)phenyl)amino)ethyl)-1,5-dihydroimidazo[1,2-a]pyrimidin-6-yl)pyridin-2-yl)acrylamide]

Reference: US20250270217A1, “IMIDAZ0[1,2-A]PYRIMIDINE-5(1 H)-ONES HAVING A COVALENT WARHEAD AT THE 3-POSITION AS WRN INHIBITORS” (Incyte Corporation, priority 2023, published 2025)
